What was measured:
Format in all cases: in vivo, human
[1] = test system: sacroiliitis and peripheral oligoarthritis; assay: Example 1: patient with sacroiliitis and peripheral oligoarthritis treated with oral budesonide; conditions: person; for Outcome of previous treatment: sacroiliitis and peripheral oligoarthritis for over 7 years, treatment before budesonide
Method: (§1) The invention is illustrated by the following examples where budesonide is administered orally using the Entocort™ preparation as described in EP-A-502092.
They were initially treated with 9 mg of budesonide once a day for the first four weeks and then the dose was reduced to 6 mg per day.
The normal value of morning stiffness is 0 min. The joint arthritic index was measured using the Lansbury index whose normal value is 0. The spinal movement was measured using Shober's Test whose normal value is from 5 to 6 cm. The joint pain at rest and in motion was estimated using a VAS (visual analogue scale) where 0 represents no pain and 10 very severe pain.

[2] = test system: ankylosing spondylitis; assay: Example 2: patient with ankylosing spondylitis treated with oral budesonide; conditions: person; for Outcome of previous treatment: ankylosing spondylitis for 12 years, treatment before budesonide
Method: as §1
The tests were carried out in the same way as in Example 1 except that the laboratory inflammatory activity was measured using the ESR (erythrocyte sedimentation rate) whose normal value is less than 5 mm/h and the C-reactive protein plasma concentration which is usually less than 10 mg/litre.

[3] = test system: rheumatoid arthritis; assay: Example 3: patient with rheumatoid arthritis treated with oral budesonide; conditions: person, 9 mg once a day, after 4 months
Method: The invention is illustrated by the following examples where budesonide is administered orally using the Entocort™ preparation as described in EP-A-502092. […] They were diagnosed as having rheumatoid arthritis. They were treated with 9 mg of budesonide once a day. The tests for the symptoms were carried out in the same way as in Examples 1 and 2.

[4] = test system: HLA-B27 associated reactive arthritis; assay: Example 4: patient with HLA-B27 associated reactive arthritis treated with oral budesonide; conditions: person
Method: as §1
wherein the Ritchie index is an alternative joint arthritic index.

[5] = test system: HLA-B27 associated sacroiliitis with peripheral arthropathies; assay: Example 5: patient with HLA-B27 associated sacroiliitis with peripheral arthropathies treated with oral budesonide; conditions: for Outcome of previous treatment: sacroiliitis with peripheral arthropathies for 8 years, treatment before budesonide
Method: as §1
A patient had suffered from a HLA-B27 associated sacroiliitis with peripheral arthropathies for 8 years. […] At admittance to the hospital they suffered from direct pains of the sacroiliac joints and inflammation of the left knee and left ankle.

[6] = test system: rheumatoid arthritis; assay: Example 6: patient with rheumatoid arthritis treated with oral budesonide; conditions: person, 9 mg per day, follow-up 4 weeks
Method: as §1

[7] = test system: rheumatoid arthritis; assay: Example 7: patient with rheumatoid arthritis treated with oral budesonide; conditions: person, 9 mg per day, three weeks
Method: The invention is illustrated by the following examples where budesonide is administered orally using the Entocort™ preparation as described in EP-A-502092. A person had suffered from joint swelling and joint pains for about 5 months. At admittance they had symmetric swelling of finger joints, both knees and left ankle. They were on treatment with diclofenac. The rheumatoid factor test was positive and the diagnosis was rheumatoid arthritis. Diclofenac treatment was stopped and they were given 9 mg of budesonide per day.

[8] = test system: rheumatoid arthritis; assay: Example 8: patient with rheumatoid arthritis treated with oral budesonide; conditions: 9 mg once a day
Method: as §1
A person had for 2 months suffered from rapidly progressive inflammations of the finger joints of both hands (metacarpophalangeal joints, proximal interphalangeal joints) and the wrists. The diagnosis was rheumatoid arthritis.

[9] = 9 mg once a day, oral, one month after start, before treatment 8
[10] = person, oral, second follow-up three weeks after the first, before treatment 7

CCCC1O[C@@H]2C[C@H]3[C@@H]4CCC5=CC(=O)C=C[C@]5(C)[C@H]4[C@@H](O)C[C@]3(C)[C@]2(C(=O)CO)O1 (stereo partly shown) [budesonide]
Spinal movement (Shober's Test) ([1]; 9 mg once a day four weeks then 6 mg per day, oral, after 2 months, before treatment 1, normal 5 to 6): 4 cm
Joint pains at rest (VAS 0-10) ([1]; 9 mg once a day four weeks then 6 mg per day, oral, after 2 months, before treatment 5): 1.5/1.5
Joint pains in motion (VAS 0-10) ([1]; 9 mg once a day four weeks then 6 mg per day, oral, after 2 months, before treatment 9.5): 1.5/1.5
Morning stiffness ([1]; 9 mg once a day four weeks then 6 mg per day, oral, after 2 months, before treatment 120, normal 0): 20 min
Joint arthritic index (Lansbury index) ([1]; 9 mg once a day four weeks then 6 mg per day, oral, after 2 months, before treatment 127, normal 0): 0
Spinal movement (Shober's Test) ([2]; 9 mg once a day, oral, one month after start, before treatment 2.5): 3.5 cm
Joint pains at rest (VAS 0-10) [2, 9]: 1
Joint pains in motion (VAS 0-10) [2, 9]: 1.7
ESR rate (erythrocyte sedimentation rate) ([2]; 9 mg once a day, oral, one month after start, before treatment 85, normal less than 5): 30 mm/h
Joint arthritic index (Lansbury index) ([2]; 9 mg once a day, oral, one month after start, before treatment 127): 80
C-reactive protein plasma concentration ([2]; 9 mg once a day, oral, one month after start, before treatment 140, usually less than 10): 25 mg/L
Morning stiffness ([2]; 9 mg once a day, oral, one month after start, before treatment 270): 0 min
C-reactive protein ([3]; before treatment 41): 10 mg/L
ESR rate ([3]; before treatment 70): 16 mm/h
Morning stiffness ([3]; before treatment 180): 0 min
Joint arthritic index (Lansbury index) ([3]; before treatment 205): 0
Ritchie index ([4]; 9 mg once a day, oral, three weeks, before treatment 9): 4
Joint arthritic index ([4]; 9 mg once a day, oral, three weeks, before treatment 112): 6
Morning stiffness ([4]; 9 mg once a day, oral, three weeks, before treatment 120): 60 min
Duration of treatment until they started to improve ([5]; 9 mg per day): 2 weeks
Ritchie index ([5]; person, 9 mg per day, oral, 6 weeks after start, before treatment 3): 0
Joint pains in motion (VAS 0-10) ([5]; person, 9 mg per day, oral, 6 weeks after start, before treatment 8): 0/0
Joint pains at rest (VAS 0-10) ([5]; person, 9 mg per day, oral, 6 weeks after start, before treatment 9.5): 0/0
Joint arthritic index ([5]; person, 9 mg per day, oral, 6 weeks after start, before treatment 127): 0
Morning stiffness ([5]; person, 9 mg per day, oral, 6 weeks after start, before treatment 180): 0 min
Ritchie index ([6]; before treatment 8): 5
Joint arthritic index ([6]; before treatment 64): 0
Morning stiffness ([6]; before treatment 120): 60 min
Joint pains in motion (VAS 0-10) ([7]; before treatment 5): 0/0
Joint pains at rest (VAS 0-10) ([7]; before treatment 10): 0/0
Ritchie index ([7]; before treatment 19): 5
Joint arthritic index ([7]; before treatment 112): 15
Morning stiffness ([7]; before treatment 210): 15 min
Time until they started to feel better [8]: 14 days
Ritchie index ([8]; person, oral, first follow-up three weeks after start, before treatment 16): 2
Joint arthritic index ([8]; person, oral, first follow-up three weeks after start, before treatment 90): 0
Joint pains at rest (VAS 0-10) [8, 10]: 1/1
Joint pains in motion (VAS 0-10) [8, 10]: 1/1

CN(Cc1cnc2nc(N)nc(N)c2n1)c1ccc(C(=O)N[C@@H](CCC(=O)O)C(=O)O)cc1 [methotrexate]
Outcome of previous treatment [1]: without success
Outcome of previous treatment [2]: without success
Outcome of previous treatment ([5]; person): without any apparent disease-modifying effect

C[C@]12C=CC(=O)C=C1CC[C@@H]1[C@@H]2[C@@H](O)C[C@@]2(C)[C@H]1CC[C@]2(O)C(=O)CO [prednisolone]
Outcome of previous treatment [1]: without success
Outcome of previous treatment ([4]; reactive arthritis, treatment before budesonide): some relief of the joint pains
Outcome of previous treatment ([5]; person): without any apparent disease-modifying effect

O=C(O)c1cc(/N=N/c2ccc(S(=O)(=O)Nc3ccccn3)cc2)ccc1O [sulphasalazine]
Outcome of previous treatment [2]: without success
Outcome of previous treatment ([5]; person): without any apparent disease-modifying effect
